We go through one compound from patent US20250367209A1 (SOUTHERN RESEARCH INSTITUTE, priority 2022, published 2025).

“Also recorded” adds a separate entry of the source.

One assay concerns the target 97 kinases. Description: Eurofins DiscoverX ScanEDGE kinase panel. The format is biochemical. The settings on record: compound no. 69 at 3 μM; saracatinib stock 30 μM = 1000× testing concentration; activity = <35% of control. An excerpt:
69 and compound no. […] Since Fyn was not included in that panel, a custom panel was completed for Fyn kinase activity.

For assay [1] the following is noted: Phase IIa, van Dyck et al. 2019; cited from earlier work.

For `CN1CCN(CCOc2cc(OC3CCOCC3)c3c(Nc4c(Cl)ccc5c4OCO5)ncnc3c2)CC1` [saracatinib, reference compound], the “kinase inhibition, panel of 97 kinases” value at 97 kinases is “inhibited several Src family kinases; also recorded: inhibits Src, Fyn, Abl, and EGFR kinase activity”. Moreover, the “clinical benefit in AD” value in assay [1] is “showed no clinical benefit in AD at a tolerable dose”.
